Reference: ChEMBL document CHEMBL6092201, “Discovery of cyanoguanidine derivatives as biased μ-opioid receptor agonists” (2024)
Activity calls are given as the source filed them.

Experiments:
Format in all cases: functional
[1] = molecular target: Mu-type opioid receptor (Homo sapiens) (UniProt P35372); assay: Agonist activity at MOR (unknown origin) assessed as beta-arrestin2 recruitment at 0.1 uM incubated for 90 to 180 mins by chemiluminescence based microplate reader assay relative to control; conditions: time 90-180 min
Sequence of Mu-type opioid receptor (Homo sapiens) (P35372 whole entry): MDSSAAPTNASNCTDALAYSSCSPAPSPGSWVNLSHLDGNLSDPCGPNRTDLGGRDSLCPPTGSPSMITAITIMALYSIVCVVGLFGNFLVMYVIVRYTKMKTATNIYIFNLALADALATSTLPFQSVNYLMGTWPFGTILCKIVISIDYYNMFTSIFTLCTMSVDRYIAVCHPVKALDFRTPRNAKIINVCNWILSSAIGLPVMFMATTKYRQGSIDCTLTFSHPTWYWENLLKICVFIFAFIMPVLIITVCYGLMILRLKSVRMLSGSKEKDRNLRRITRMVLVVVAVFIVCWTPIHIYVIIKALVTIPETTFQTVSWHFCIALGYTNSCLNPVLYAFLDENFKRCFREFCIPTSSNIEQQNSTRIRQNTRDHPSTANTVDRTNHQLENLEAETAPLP

[2] = molecular target: Mu-type opioid receptor (Homo sapiens) (UniProt P35372); assay: Agonist activity at MOR (unknown origin) assessed as beta-arrestin2 recruitment at 10 uM incubated for 90 to 180 mins by chemiluminescence based microplate reader assay relative to control; conditions: time 90-180 min
Mus musculus = assay: Analgesic activity in Kunming mouse assessed as increase in pain threshold at 10 mg/kg, po (reference value: 0.13 +/- 5.20 sec)
[3] = molecular target: Mu-type opioid receptor (Homo sapiens) (UniProt P35372); assay: Agonist activity at MOR (unknown origin) assessed as cAMP accumulation at 0.5 nM relative to control
[4] = molecular target: Mu-type opioid receptor (Homo sapiens) (UniProt P35372); assay: Agonist activity at MOR (unknown origin) assessed as beta-arrestin2 recruitment at 1 uM incubated for 90 to 180 mins by chemiluminescence based microplate reader assay relative to control; conditions: time 90-180 min
[5] = molecular target: Mu-type opioid receptor (Homo sapiens) (UniProt P35372); assay: Agonist activity at MOR (unknown origin) assessed as cAMP accumulation at 50 nM relative to control
[6] = molecular target: Mu-type opioid receptor (Homo sapiens) (UniProt P35372); assay: Agonist activity at MOR (unknown origin) assessed as beta-arrestin2 recruitment at 50 uM incubated for 90 to 180 mins by chemiluminescence based microplate reader assay; conditions: time 90-180 min

| Structure (SMILES) | Activity [1] | Activity [2] | Time (Mus musculus) | Activity [3] | Activity [4] | Activity [5] | Activity [6] |
| --- | --- | --- | --- | --- | --- | --- | --- |
| CC(Cc1ccc[nH]1)N/C(=N\C#N)NC[C@H](Cc1ccccc1)N(C)C (stereo partly specified) | -1% | 7.9% | 17.58 s | 5.8% | -0.4% | 24.3% | inactive |
| CN(C)[C@H](CN/C(=N/C#N)NCCc1ccccc1)Cc1ccc(O)cc1 | -0.9% | -0.7% | 6.89 s | 8.6% | -0.7% | 4.1% | inactive |
| COc1cccc(CCN/C(=N\C#N)NC[C@H](Cc2ccccc2)N(C)C)c1 | -1% | 23% | 12.47 s | 3.3% | -0.6% | 10.3% | inactive |
| CC(Cc1cccnc1)N/C(=N\C#N)NC[C@H](Cc1ccccc1)N(C)C (stereo partly specified) | -1.1% | -0.6% | 15.75 s | 9.3% | -0.9% | 9.5% | inactive |
| COc1ccc(CN/C(=N\C#N)NC[C@H](Cc2ccccc2)N(C)C)cc1 | -0.9% | 0.9% | 14.34 s | 2.9% | -0.6% | 14.4% | inactive |
| CC(Cc1cc[nH]n1)N/C(=N\C#N)NC[C@H](Cc1ccccc1)N(C)C (stereo partly specified) | -0.4% | -0.6% | 15.44 s | -2.5% | -0.7% | -15.2% | inactive |
| COc1ccc(CN/C(=N\C#N)NC[C@H](Cc2ccc(O)cc2)N(C)C)cc1 | -1% | -0.9% | 12.41 s | 18.5% | -0.8% | 19.8% | inactive |
| COc1ccccc1N/C(=N\C#N)NC[C@H](Cc1ccc(O)cc1)N(C)C | -1.2% | -1% | 7.76 s | 25.5% | -1% | 32.9% | inactive |
| COc1ccccc1N/C(=N\C#N)NC[C@H](Cc1ccccc1)N(C)C | -0.8% | 15.2% | 7.34 s | 9.5% | 2% | 36.9% | inactive |
| CC(Cc1cccs1)N/C(=N\C#N)NC[C@H](Cc1ccccc1)N(C)C (stereo partly specified) | -0.9% | 2% | 21.8 s | 12.4% | -0.4% | 37.2% | inactive |
| CC(Cc1ccco1)N/C(=N\C#N)NC[C@H](Cc1ccccc1)N(C)C (stereo partly specified) | -1.3% | -0.8% | 7.57 s | 9.5% | -1% | 15.6% | inactive |
| CC(Cc1c[nH]cn1)N/C(=N\C#N)NC[C@H](Cc1ccccc1)N(C)C (stereo partly specified) | -0.5% | 2.2% | 11.38 s | -14.4% | -0.1% | 0.8% | inactive |
| CN(C)[C@H](CN/C(=N/C#N)NCCc1ccccc1)Cc1ccccc1 | -0.9% | 2% | 19.93 s | 25.9% | -0.2% | 28% | inactive |
| CN(C)[C@H](CN/C(=N/C#N)Nc1ccccc1)Cc1ccccc1 | -0.5% | 15.9% | 20.94 s | 2.1% | 1.9% | 23.1% | inactive |
| CN(C)[C@H](CN/C(=N/C#N)NCCc1cccc(F)c1)Cc1ccccc1 | -0.7% | 4.8% | 8.86 s | 7.4% | -0.3% | 14.4% | inactive |
| CC(Cc1ccncc1)N/C(=N\C#N)NC[C@H](Cc1ccccc1)N(C)C (stereo partly specified) | -1.1% | -0.5% | 12.52 s | 2.9% | -0.9% | 8.6% | inactive |
| CC(Cc1c[nH]c2ccccc12)N/C(=N\C#N)NC[C@H](Cc1ccccc1)N(C)C (stereo partly specified) | -0.9% | -0.7% | 11.63 s | 11.1% | -0.9% | 17.7% | inactive |
| CC(Cc1ccsc1)N/C(=N\C#N)NC[C@H](Cc1ccccc1)N(C)C (stereo partly specified) | -1% | 1.9% | 22.76 s | -0.8% | -0.6% | 9.1% | inactive |
| CN1CC[C@]23c4c5ccc(O)c4O[C@H]2[C@@H](O)C=C[C@H]3[C@H]1C5 [MORPHINE] | – | – | 22.79 s | – | – | – | – |
| CN(C)[C@H](CN/C(=N/C#N)NCCc1ccc(O)cc1)Cc1ccccc1 | -0.9% | -0.9% | 6.82 s | 13.2% | -0.7% | 19.3% | inactive |
| COc1ccc2cc(CC(C)N/C(=N\C#N)NC[C@H](Cc3ccccc3)N(C)C)ccc2c1 (stereo partly specified) | -1% | -1% | 10.44 s | 15.2% | -1% | 23.6% | inactive |
